Measured values reported in patent publication EP3290412A1, “HIV-1 NUCLEOCAPSID INHIBITORS” (Università degli Studi di Siena, priority 2016, dated 2018).
pIC50: −log10 of the molar value. Like-named read-outs stand apart in the source and are kept apart here.

Tests used:
Assay type in all cases: cell-based
[1] = system: HIV-1 reference strain NL4-3; assay: BiCycle assay (MT-2 then TZM-bl cells); conditions: for IC50 / EC50: Human immunodeficiency virus 1, NL43, TZM-bl; for IC50: read-out: BiCycle IC50 nM; for EC50: read-out: Mean EC50 (nM); for pIC50: Human immunodeficiency virus 1, NL43, MT-2 cells 72 hours then TZM-bl cells two days, NL4-3, read-out: BiCycle IC50
Protocol: BiCycle Assay is cell based assay allowing the evaluation of the antiviral activity of HIV-1 inhibitors on the whole replication cycle of HIV-1. The assay consists in a first round of infection of the T-cell line MT-2 followed by infection of TZM-bl cells. MT-2 cells were seeded at a concentration of 50,000 cells/well in a 96-well plate and infected with the HIV-1 reference strain NL4-3 in presence of five-fold dilutions of the investigational compounds. After 72 hours, 50 µl of supernatant from each well, containing the virus produced in the first round of infection, were used to infect TZM-bl cells seeded in a 96-plate well at a concentration of 30,000 cells/well. Two days later, cells were lysed adding 40 µl of Glo Lysis Buffer (Promega) to each well for 5 minutes, then 40 µl of Brighy-Glo Luciferase Reagent (Promega) were added to each well for relative luminescence units (RLU) counting using Glo-Max Multi Detection System (Promega). RLU values from each well were elaborated using the GraphPad v5.0 software to calculate the IC50 of each compound.

[2] = system: HeLa cells; assay: HeLa Proliferation assay (CellTiter Glo); conditions: 72 hours
Protocol: HeLa cells (ATCC® CCL2™) in DMEM (Dulbecco Modified Eagle's Medium) without phenol red, Thermo, 11880, USA + 10% FBS + 1X PenStrep + 1X Gln or HUVEC cells (ATCC® CRL1730™) in EBM-2 (Endothelial Growth Basal Medium, Lonza, CC3156) + EGM-2 SingleQuotsTMSupplements and Growth Factors (Lonza, CC4176) + 1X Penicyllin-Streptomycin (PenStrep, ThermoFisher) + 1X Glutamine, are plated in a 384 well plate (Thermo, 4334-11, USA) to a density of 2000 cells per well and let recover for four hours at 37 °C, 5% CO2 in a humidified atmosphere. After the recovery, compounds are transferred to assay plates as per compound preparation method. Assay plates are then incubated at 37 °C, 5% CO2 in a humidified atmosphere for 72 hours. Cell viability is measured by the CellTiter Glo (Promega, G8080, USA) as per manufacturer instruction.

[3] = system: Peripheral blood mononuclear cells (PBMC); conditions: human, 7 days
Protocol: Peripheral blood mononuclear cells (PBMC) obtained from healthy donors by separation over Ficoll-Hypaque (GEHealthear-Cat.# GEH17-1440-02) were suspended at 2x10^6 cells/mL in RPMI 1640 (Biowest-Cat.#L0501-500) supplemented with 10% of heat-inactivated sterile fetal bovine serum (Gibco-Cat.#10270-106), 2 mmol/l L-glutamine (Biowest-Cat.#X0550-100), 50 U/mL Penicillin-50 µg/mL Streptomycin (Biowest-Cat.#L0022-100), referred to as complete medium (CM). PBMC were supplemented with 5 µg/mL of phytohaemagglutinin (Sigma Aldr-Cat.#L1668) and cultured in 75 cm^2 flasks (Sarsted-Cat.#833.911.002) for 2 days at 37 °C in a humidified atmosphere with 5% CO2.
PBMC were then washed in CM, counted by trypan blue exclusion (Gibco-Cat. #15250-061), centrifuged and suspended in fresh CM supplemented with 20 IU/mL recombinant human IL-2 (Miltenyi Biotec-Cat.#130-097-748) and seeded in a 96-well-tissue culture plate (Sarsted-Ca#831.837) at the density of 5x10^5 cells/mL (or 1x10^5 cells in 200 µL final CM volume per well). Cells were left untreated (negative control) or treated with different concentrations of the compounds.
After 7 days of incubation cytotoxicity was determined using Promega's CellTiter 96(R) AQueous One Solution Cell Proliferation Assay (MTS assay) (Promega-Cat.#G3581) according to the manufacturer's instuctions. This is a colorimetric method for determining the number of viable cells in proliferation or cytotoxicity assays. The MTS tetrazolium compound is bioreduced by cells into a colored formazan product that is soluble in tissue culture medium. This conversion is presumably accomplished by NADPH or NADH produced by dehydrogenase enzymes in metabolically active cells.
Briefly, MTS solution was thawed at room temperature, or in a water bath at 37 °C and 40 µL of MTS solution was pipeted into each well of the 96-well assay plate containing the samples in 200 µL of culture medium and incubated at 37 °C, 5% CO2 for 4 hours. The optical density was read at 490 nm using a 96-well plate reader (Tecan Infinite F50) and TD50 (toxic dose 50%, dose killing 50% of the cells compared to untreated control) value was calculated by interpolation of the curve obtained by plotting dose against percent mortality and by using "Magellan data analysis software". CM alone plus MTS solution was used as a blank, and cell culture well without compound was used as a cellular control.

Row | Compound | IC50 [1] [nM] | Proliferation assay HELA TD50 [2] [µM] | Proliferation assay PBMC TD50 [3] [nM] | EC50 [1] [nM] | TD50 [3] [µM] | pIC50 [1]
1 | CN1CCCC(CNC(=O)c2nc(-c3ccccn3)nc(O)c2O)C1 (stereo not drawn) [Compound 7, 5,6-dihydroxy-N-((1-methylpiperidin-3 - yl)methyl)-2-(pyridin-2-yl)pyrimidine-4-carboxamide] | > 50000 | >50 | >50000 | – | – | –
2 | Cc1nnc(C(=O)NC(C)(C)c2nc(C(=O)NCc3ccc(F)cc3)c(O)c(=O)n2C)o1 [Raltegravir™, Raltegravir, reference compound] | – | – | – | 1 | > 50 | –
3 | COc1cc(-c2nc(O)c(O)c(C(=O)N[C@H](C)C3CCCCC3)n2)nc2ccccc12 [Compound 68, N-[(1R)-1-cyclohexylethyl]-2-(4-methoxyquinolin-2-yl)-5,6-bis(oxidanyl)pyrimidine-4-carboxamide] | – | 5.7007 | 2660 | – | – | 6.62
4 | C[C@@H](NC(=O)c1nc(-c2ccc(NC(=O)OC(C)(C)C)cn2)nc(O)c1O)C1CCCCC1 [Compound 61, tert-butyl (R)-(6-(4-((1-cyclohexylethyl)carbamoyl)-5,6-dihydroxypyrimidin-2-yl)pyridin-3-yl)carbamate] | 210 | 2.0358 | 2400 | – | – | –
5 | CCNS(=O)(=O)c1ccc(-c2nc(O)c(O)c(C(=O)N[C@H](C)C3CCCCC3)n2)nc1 [Compound 89, (R)-N-(1-cyclohexylethyl)-2-(5-(N-ethylsulfamoyl)pyridin-2-yl)-5,6-dihydroxypyrimidine-4-carboxamide] | 10400 | 12.629 | 3290 | – | – | –
6 | C[C@@H](NC(=O)c1nc(-c2cccc(C(F)(F)F)n2)nc(O)c1O)C1CCCCC1 [Compound 44, (R)-N-(1-cyclohexylethyl)-5,6-dihydroxy-2-(6-(trifluoromethyl)pyridin-2-yl)pyrimidine-4-carboxamide] | – | >50 | 21550 | – | – | 6.03
7 | CC1(C)CCC(NC(=O)c2nc(-c3ccccn3)nc(O)c2O)CC1 [Compound 58, N-(4,4-dimethylcyclohexyl)-5,6-dihydroxy-2-(pyridin-2-yl)pyrimidine-4-carboxamide] | 268 | 2.0452 | 1600 | – | – | –
8 | COc1ccnc(-c2nc(O)c(O)c(C(=O)N[C@H](C)C3CCCCC3)n2)c1 [Compound 28, (R)-N-(1-cyclohexylethyl)-5,6-dihydroxy-2-(4-methoxypyridin-2-yl)pyrimidine-4-carboxamide] | 40.5 | 2.8609 | 2700 | 41 | 2.7 | –
9 | C[C@@H](NC(=O)c1nc(-c2cc(C(=O)OCc3ccccc3)ccn2)nc(O)c1O)C1CCCCC1 [Compound 46, benzyl (R)-2-(4-((1-cyclohexylethyl)carbamoyl)-5,6-dihydroxypyrimidin-2-yl)isonicotinate] | 543 | 6.4784 | 1000 | – | – | –
10 | O=C(NC1(C2CCCCC2)CC1)c1nc(-c2ccccn2)nc(O)c1O [Compound 24, N-(1-cyclohexylcyclopropyl)-5,6-dihydroxy-2-(pyridin-2-yl)pyrimidine-4-carboxamide] | 110 | 1.5131 | 2600 | – | – | –
11 | C[C@H](NC(=O)c1nc(-c2ccc(N)cn2)nc(O)c1O)C1CCCCC1 [Compound 81, (S)-2-(5-aminopyridin-2-yl)-N-(1-cyclohexylethyl)-5,6-dihydroxypyrimidine-4-carboxamide] | 222 | 0.5425 | 1400 | – | – | –
12 | C[C@@H](NC(=O)c1nc(-c2cc(N3CCN(C)CC3)ccn2)nc(O)c1O)C1CCCCC1 [Compound 76, (R)-N-(1-cyclohexylethyl)-5,6-dihydroxy-2-(4-(4-methylpiperazin-1-yl)pyridin-2-yl)pyrimidine-4-carboxamide] | 565 | 3.6831 | 2500 | – | – | –
13 | C[C@@H](NC(=O)c1nc(-c2ccc(C(F)(F)F)cn2)nc(O)c1O)C1CCCCC1 [Compound 36, (R)-N-(1-cyclohexylethyl)-5,6-dihydroxy-2-(5-(trifluoromethyl)pyridin-2-yl)pyrimidine-4-carboxamide] | 132 | 4.7177 | 465 | – | – | –
14 | C[C@@H](NC(=O)c1nc(-c2ncccc2Cl)nc(O)c1O)C1CCCCC1 [Compound 33, (R)-2-(3-chloropyridin-2-yl)-N-(1-cyclohexylethyl)-5,6-dihydroxypyrimidine-4-carboxamide] | 1220 | 6.8148 | 3400 | – | – | –
15 | C[C@H](NC(=O)c1nc(-c2nccc3[nH]ccc23)nc(O)c1O)C1CCCCC1 [Compound 86, (S)-N-(1-cyclohexylethyl)-5,6-dihydroxy-2-(1H-pyrrolo[3,2-c]pyridin-4-yl)pyrimidine-4-carboxamide] | 2280 | 1.4147 | – | – | – | –
16 | C[C@@H](NC(=O)c1nc(-c2ccc(CO)cn2)nc(O)c1O)C1CCCCC1 [Compound 55, (R)-N-(1-cyclohexylethyl)-5,6-dihydroxy-2-(5-(hydroxymethyl)pyridin-2-yl)pyrimidine-4-carboxamide] | 504 | 1.4665 | – | – | – | –
17 | C[C@@H](NC(=O)c1nc(-c2ccc(CN3CCCC3)cn2)nc(O)c1O)C1CCCCC1 [Compound 93, (R)-N-(1-cyclohexylethyl)-5,6-dihydroxy-2-(5-(pyrrolidin-1-ylmethyl)pyridin-2-yl)pyrimidine-4-carboxamide] | 1360 | – | 1870 | – | – | –
18 | O=C(OC1CCCCC1)c1nc(-c2ccccn2)nc(O)c1O [Compound 13, cyclohexyl 5,6-dihydroxy-2-(pyridin-2-yl)pyrimidine-4-carboxylate] | – | >50 | 16300 | – | – | –
